Laboratory results published in paper PMC6277767, “Broad and Region-Specific Impacts of the Synthetic Cannabinoid CP 55,940 in Adolescent and Adult Female Mouse Brains” (Frontiers in Molecular Neuroscience, 2018).

Test: CP 55,940 levels in eight brain regions 2 h after single i.p. 3 mg/kg injection (HPLC/MS/MS)
Type: in vivo, mouse
Settings: for CP 55,940 level: 3mg/kg CP 55,940, mean
Method: The Bloomington Institutional Animal Care and Use Committee of Indiana University reviewed and approved the animal procedures. Female mice from the CD1 strain were utilized to match our study examining THC’s effects on the brain lipidome ([Leishman et al., 2018]). Mice were given a single i.p. injection of either 3 mg/kg CP or 1:1:18 cremophor:ethanol:saline vehicle (please refer to the section “3 mg/kg CP Is Relevant for Synthetic Cannabinoid Abuse and Has Stronger Effects on the Female Mouse Brain Lipidome During Adolescence” for a justification of dose and use of female mice). Three different age groups were given injections: PND 35 and PND 50 adolescents, and adult mice (PND 113). At least eight mice in each age group received CP and at least eight received vehicle. Matching the THC study time course ([Leishman et al., 2018]), mice were sacrificed via rapid decapitation 2 h after injection. Brains were immediately removed and flash-frozen in liquid nitrogen, and then stored at -80°C until dissections were performed. Brains were dissected on an ice-cold dissection plate into the following regions: STR, HIPP, CER, THAL, CTX, HYP, MID, and STEM. These abbreviations for these brain areas will be used exclusively when discussing the results generated by these specific dissections. Each dissected area was immediately placed in liquid nitrogen and then stored at -80°C until used for lipid extraction.
Tissue extracts were performed as previously described ([Bradshaw et al., 2006]; [Stuart et al., 2013]; [Raboune et al., 2014]; [Leishman et al., 2016a],[b], [2017], [2018]). First, samples were shock frozen in liquid nitrogen, weighed, and transferred to a centrifuge tube. The mass of the largest sample was multiplied by 50 to determine how many milliliters of HPLC-grade methanol (Fisher, Fair Lawn, NJ, United States) to add. Then, samples were spiked with 500 pmol deuterium-labeled NAGly (d8NAGly; Cayman Chemical, Ann Arbor, MI, United States). Samples were placed on ice in darkness for 2 h then individually homogenized and centrifuged at 19,000 × g for 20 min at 20°C. Supernatants were diluted with HPLC water (purified in house) to make a solution of 75% water, 25% supernatant. Lipids were partially purified on C18 solid phase extraction columns (Agilent, Palo Alto, CA, United States). A series of four elutions with 1.5 mL of 60%, 75%, 85%, and 100% methanol were collected ([Stuart et al., 2013]; [Leishman et al., 2016a],[b], [2018]).
As previously described ([Bradshaw et al., 2006]; [Tan et al., 2006]; [Smoum et al., 2010]; [Stuart et al., 2013]; [Tortoriello et al., 2013]; [Raboune et al., 2014]; [Leishman et al., 2016a],[b], [2017], [2018]), samples were analyzed using an Applied Biosystems API 3000 triple quadrupole mass spectrometer with electrospray ionization (Foster City, CA, United States). Using an Agilent XDB-C18 reversed phase analytical column and optimized mobile phase gradients, 20 μL from each elution were chromatographed. Two Shimadzu 10ADvp pumps (Columbia, MD, United States) provided the pressure for gradient elution. Mobile phase A: 20% methanol, 80% water (v/v) and 1 mM ammonium acetate (Sigma, St. Louis, MO, United States). Mobile phase B: 100% methanol, 1 mM ammonium acetate. Every method run began with 0% mobile phase B, reached 100% mobile phase B flowing at 0.2 mL/min, and gradually returned to 0% mobile phase B.
This screening library will be referred to as the lipidome when discussing data from this study. HPLC/MS/MS data were analyzed using Analyst software (Applied Biosystems) ([Bradshaw et al., 2006]; [Tan et al., 2006]; [Stuart et al., 2013]; [Tortoriello et al., 2013]; [Raboune et al., 2014]; [Leishman et al., 2016a],[b], [2017], [2018]). Chromatograms (Supplementary Figure 3) were generated by determining the retention time of analytes from the analytical column with a [M-1] or [M+1] parent peak and a fragmentation peak corresponding to the programmed values. […]

[1] = brainstem, PND 50, 3 mg/kg CP 55,940, one-way ANOVA p .000
[2] = cerebellum, PND 50, 3 mg/kg CP 55,940
[3] = cerebellum, adult, 3 mg/kg CP 55,940
[4] = cerebellum, PND 35, 3 mg/kg CP 55,940
[5] = cortex, PND 35, 3 mg/kg CP 55,940
[6] = hippocampus, PND 50, 3 mg/kg CP 55,940 vs Veh
[7] = hippocampus, adult, 3 mg/kg CP 55,940
[8] = hippocampus, PND 35, 3 mg/kg CP 55,940 vs vehicle
[9] = striatum, PND 50, 3mg/kg CP 55,940 vs Veh
[10] = striatum, adult, 3 mg/kg CP 55,940, one-way ANOVA p .000
[11] = striatum, PND 35, 3mg/kg CP 55,940
[12] = thalamus, PND 50, 3 mg/kg CP 55,940
[13] = thalamus, adult, 3 mg/kg CP 55,940
[14] = thalamus, PND 35, 3 mg/kg CP 55,940

CCCCCCC(C)(C)c1ccc([C@@H]2C[C@H](O)CC[C@H]2CCCO)c(O)c1 [CP 55,940]
CP 55,940 level, Mean (brainstem, PND 50, 3 mg/kg CP 55,940): 8.2E-11 | CP 55,940 level, Direction (relative to Veh) [1]: ↑ | CP 55,940 level, Magnitude (x Veh level) [1]: infinite | CP 55,940 level: Direction (relative to Veh) [2]: ↑ | CP 55,940 level: Magnitude (x Veh level) [2]: infinite | CP 55,940 level, Mean (cerebellum, PND 50 female mice, 3 mg/kg CP 55,940): 7.57E-11 | CP 55,940 level, Mean (cerebellum, WT adult female mice, 3mg/kg CP 55,940): 2.8E-10 | CP 55,940 level: Direction (relative to Veh) [3]: ↑ | CP 55,940 level: Magnitude (x Veh level) [3]: infinite | CP 55,940 level: Direction (relative to Veh) [4]: ↑ | CP 55,940 level: Magnitude (x Veh level) [4]: infinite | CP 55,940 level, Mean (cerebellum, PND35 WT female mice, 3mg/kg CP 55,940): 7.22E-11 | CP 55,940 level, Direction (relative to Veh) (cortex, PND 50, 3 mg/kg CP 55,940): ↑ | CP 55,940 level, Magnitude (x Veh level) (cortex, PND 50, 3 mg/kg CP 55,940, ANOVA p .000): infinite | CP 55,940 level, Mean (cortex, PND 50 female mice, 3mg/kg CP 55,940): 8.61E-11 | CP 55,940 level Direction (rel to Veh) [5]: ↑ | CP 55,940 level, Magnitude (x Veh level) [5]: infinite | CP 55,940 level, Mean (cortex, PND 35 adolescent female mice, 3 mg/kg CP 55,940): 1.11E-10 | CP 55,940 level, Direction (relative to Veh) [6]: ↑ | CP 55,940 level, Magnitude (x Veh level) [6]: infinite | CP 55,940 level (hippocampus, PND 50 female mice): 1.23E-10 | CP 55,940 level, Mean [7]: 2.68E-10 | CP 55,940 level: Direction (relative to Veh) [7]: ↑ | CP 55,940 level: Magnitude (x Veh level) [7]: infinite | CP 55,940 level: Direction [8]: ↑ | CP 55,940 level: Magnitude [8]: infinite | CP 55,940 level, Mean (hippocampus, PND 35 WT female mice, 3mg/kg CP 55,940): 9.63E-11 | CP 55,940 level, Direction (relative to Veh) (hypothalamus, PND 50, 3mg/kg CP 55,940): ↑ | CP 55,940 level, Magnitude (x Veh level) (hypothalamus, PND 50, 3mg/kg CP 55,940, ANOVA p .000): infinite | CP 55,940 level, Mean (hypothalamus, PND 50 female mice, 3mg/kg CP 55,940): 4.38E-11 | CP 55,940 level, Mean (hypothalamus, PND 35 adolescent female mice, 3 mg/kg): 5.31E-11 | CP 55,940 level, Direction (relative to Veh) (midbrain, PND 50, 3mg/kg CP 55,940): ↑ | CP 55,940 level, Magnitude (x Veh level) (midbrain, PND 50, 3mg/kg CP 55,940, ANOVA p .000): infinite | CP 55,940 level, Mean (midbrain, PND 50 female mice, 3mg/kg CP 55,940): 1.21E-10 | CP 55,940 level, Mean (midbrain, PND 35 WT adolescent female mice, 3 mg/kg): 7.91E-11 | CP 55,940 level, Direction (relative to Veh) [9]: ↑ | CP 55,940 level, Magnitude (x Veh level) [9]: infinite | CP 55,940 level (striatum, PND 50 female mice): 5.87E-11 | CP 55,940 level, Mean (striatum, adult, 3 mg/kg CP 55,940): 2.08E-10 | CP 55,940 level, Direction (relative to Veh) [10]: ↑ | CP 55,940 level, Magnitude (x Veh level) [10]: infinite | CP 55,940 level: Direction (relative to Veh) [11]: ↑ | CP 55,940 level: Magnitude (x Veh level) [11]: infinite | CP 55,940 level: Direction (relative to Veh) [12]: ↑ | CP 55,940 level: Magnitude (x Veh level) [12]: infinite | CP 55,940 level, Mean (thalamus, PND 50 female mice, 3 mg/kg CP 55,940): 9.93E-11 | CP 55,940 level, Mean (thalamus, WT adult female mice, 3mg/kg CP 55,940): 2E-10 | CP 55,940 level: Direction (relative to Veh) [13]: ↑ | CP 55,940 level: Magnitude (x Veh level) [13]: infinite | CP 55,940 level, Direction (relative to Veh) [14]: ↑ | CP 55,940 level, Magnitude (x Veh level) [14]: infinite | CP 55,940 level, Mean (thalamus, PND 35 adolescent female mice, 3 mg/kg CP 55,940): 8.87E-11
